Measured values taken from US6689803B2, “Compositions and methods for treating surgical adhesions” (Angiotech Pharmaceuticals, Inc., priority 1996, dated 2004).
Marks after values point to notes of the source that are not given here.

Key:
[1] = system: collagenase (MMP-1) mRNA; experiment: IL-1 induced collagenase mRNA expression in chondrocytes (Northern blot); assay type: cell-based, calf
Method: Total RNA was isolated, and the MMP-1 mRNA levels were determined by Northern blot analysis. The blots were subsequently stripped and reprobed with ^32P-radiolabeled rat GAPDH cDNA, which was used as a housekeeping gene. The results shown are representative of four independent experiments. Quantitation of collagenase-1 and stromelysin-expression mRNA levels. The MMP-1 and MMP-3 expression levels were normalized with GAPDH.
Primary chondrocyte cultures were freshly isolated from calf cartilage. The cells were plated at 2.5×10^6 per ml in 100×20 mm culture dishes and incubated in Ham's F12 medium containing 5% FBS overnight at 37° C. […] IL-1 (20 ng/ml) was then added to each plate and the plates incubated for an additional 18 hours. Total RNA was isolated by the acidified guanidine isothiocyanate method and subjected to electrophoresis on a denatured gel. Denatured RNA samples (15 μg) were analyzed by gel electrophoresis in a 1% denatured gel, transferred to a nylon membrane and hydridized with the ^32P-labeled collagenase cDNA probe. ^32P-labeled glyceraldehyde phosphate […] (GAPDH) cDNA as an internal standard to ensure roughly equal loading. The exposed films were scanned and quantitatively analyzed with ImageQuant.

[2] = system: human keratinocytes; experiment: Keratinocyte viable cell number (trypan blue exclusion); assay type: cell-based; conditions: 4 days
Method: Following incubation, cells were collected and counted by the trypan blue exclusion assay.

[3] = system: neutrophils; experiment: Neutrophil degranulation assay (myeloperoxidase, lysozyme release); assay type: cell-based, human
Method: Neutrophil viability and purity was always greater than 90%.
One and a half milliliter Eppendorf tubes containing either 25 mg of CPPD or 1 mg of zymosan were preheated to 37° C. 0.5 ml of cells at 37° C. were added followed by vigorous shaking to initiate the reactions. At appropriate times, tubes were centrifuged at 10,000 g for 10 seconds and 0.4 ml of supernatant was stored at −20° C. for later assay.
Lysozyme was measured by the decrease in absorbance at 450 nm of a Micrococcus lysodeikticus suspension. Briefly, Micrococcus lysodeikticus was suspended at 0.1 mg/ml in 65 mM potassium phosphate buffer, pH 6.2 and the absorbance at 450 nm was adjusted to 0.7 units by dilution. The crystal (or zymosan) and cell supernatant (100 μl) was added to 2.5 ml of the Micrococcus suspension and the decrease in absorbance was monitored. Lysozyme standards (chicken egg white) in the 0 to 2000 units/ml range were prepared and a calibration graph of lysozyme concentration against the rate of decrease in the absorbance at 450 nm was obtained.
Myeloperoxidase (MPO) activity was measured by the increase in absorbance at 450 nm that accompanies the oxidation of dianisidine. 7.8 mg of dianisidine was dissolved in 100 ml of 0.1 M citrate buffer, pH 5.5 at […] by sonication. To a 1 ml cuvette, 0.89 ml of the dianisidine solution was added, followed by 50 μl of 1% Triton x 100, 10 μl of a 0.05% hydrogen peroxide in water solution and 50 μl of crystal-cell supernatant. MPO activity was determined from the change in absorbance (450 nm) per minute, Delta Å 450, using the following equation: […]

[4] = system: fibrous astrocytes (GFAP); experiment: GFAP and astrocytes in brain, transgenic mouse model of demyelinating disease; assay type: in vivo; conditions: brain sections, transgenic mice
Text: Three days following the tenth injection, the experimental study was terminated and the brain tissues processed for histological analysis. For light microscopy, tissues were fixed in formalin and embedded in paraffin. Sections were stained with anti-GFAP antibody (DACO), washed and then reacted with secondary antibody conjugated with HPP. The sections were stained for HPP and counter-stained with haematoxylin.

[5] = system: adhesion formation; experiment: Rabbit uterine horn model of surgical adhesions; assay type: in vivo
Method: New Zealand female white rabbits were anesthetized and a midline incision made through the skin and the abdominal wall. Both uterine horns were located and exteriorized. Using a French Catheter Scale, the diameter of each uterine horn was measured and recorded. Only those rabbits with uterine horns measuring size 8 to 16, inclusive, on the French scale were used. Using a number 10 scalpel blade, 5 cm lengths of each uterine horn, approximately 1 cm from the uterine bifurcation, were scraped, 40 times per side, until punctuate bleeding. Hemostasis was achieved by tamponade.
Test agent (0.4 to 2.5 ml) was applied over the horns via an 18 gauge needle. Uterine horns were replaced into the pelvis and the abdominal incision closed.
Body weights of the animals were recorded. The abdomen was opened and the surgical site inspected. Adhesions were graded by a blinded observer as follows:
The total length (cm) of each uterine horn involved with adhesions was estimated and recorded.
Adhesions were grades as 0 (absent), 1.0 (filmy adhesions) and 2.0 (tenacious, requiring sharp dissection).
The degree of uterine convolution was recorded according to the following scale:
No convolution: Straight lengths of adherent or non-adherent horns which are clearly discerned.
Completely convoluted: It is impossible to discern uterine anatomy because the horn is completely entangled.

[6] = system: MDAY-D2 tumors on the CAM; experiment: Tumor angiogenesis: MDAY-D2 tumors on the CAM; assay type: in vivo, chick; conditions: 20% paclitaxel-loaded thermopaste
Method: Fertilized domestic chick embryos are incubated for 4 days prior to having their shells removed. The egg contents are emptied by removing the shell located around the airspace, severing the interior shell membrane, perforating the opposite end of the shell and allowing the egg contents to gently slide out from the blunted end. The contents are emptied into round-bottom sterilized glass bowls, covered with petri dish covers and incubated at 90% relative humidity and 3% carbon dioxide.
MDAY-D2 cells (a murine lymphoid tumor) are injected into mice and allowed to grow into tumors weighing 0.5-1.0 g. The mice are sacrificed, the tumor sites wiped with alcohol, excised, placed in sterile tissue culture media, and diced into 1 mm pieces under a laminar flow hood. Prior to placing the dissected tumors onto the […] chick embryos, CAM surfaces are gently scraped with a 30 gauge needle to ensure tumor implantation. The tumors are then placed on the CAMs after 8 days of incubation (4 days after deshelling), and allowed to grow on the CAM for four days to establish a vascular supply. Four embryos are prepared utilizing this method, each embryo receiving 3 tumors. On day 12, each of the 3 tumors on the embyros received either 20% paclitaxel-loaded thermopaste, unloaded thermopaste, or no treatment. The treatments were continued for two days before the results were recorded.
The explanted MDAY-D2 tumors secrete angiogenic factors which induce the ingrowth of capillaries (derived from the CAM) into the tumor mass and allow it to continue to grow in size. Since all the vessels of the tumor are derived from the CAM, while all the tumor cells are derived from the explant, it is possible to assess the effect of therapeutic interventions on these two processes independently. This assay has been used to determine the effectiveness of paclitaxel-loaded thermopaste on: (a) inhibiting the vascularization of the tumor and (b) inhibiting the growth of the tumor cells themselves.

[7] = system: synovial fibroblasts; experiment: Synoviocyte proliferation (trypan blue dye exclusion); conditions: 24 hours

SMILES: CC(=O)O[C@H]1C(=O)[C@@]2(C)[C@H]([C@H](OC(=O)c3ccccc3)[C@]3(O)C[C@H](OC(=O)[C@H](O)[C@@H](NC(=O)c4ccccc4)c4ccccc4)C(C)=C1C3(C)C)[C@]1(OC(C)=O)CO[C@@H]1C[C@@H]2O [paclitaxel]
- concentration inhibiting collagenase expression in vitro [1]: 10^−6 M
- collagenase mRNA levels ([1]; 10^−5 M, pretreatment 24 hours, IL-1): complete inhibition
- cell viability ([2]; 10^−7 M or higher): significant drop in cell viability
- cell viability ([2]; 10^−8 M): 87 % of untreated controls
- cell viability ([2]; 10^−9 M): greater than 100 % of untreated controls
- lysozyme release ([3]; 28 μM, plasma opsonized CPPD): reduced lysozyme release
- inhibition at 28 µM ([3]; Homo sapiens, Neutrophil, 28 μM, opsonized zymosan, after 9 minutes incubation, read-out: inhibition of MPO release): 50%
- myeloperoxidase release ([3]; plasma opsonized CPPD (FIG. 5A: 28 μM)): significantly inhibited CPPD-induced myeloperoxidase release at all times
- number of fibrous astrocytes [4]: decreased significantly
- Adhesion-Free: number of uterine horns free of adhesions/total ([5]; 0.1% in vehicle): 0/20
- Convolution: number of uterine horns with no convolution/partial convolution/full convolution ([5]; 0.1% in vehicle): 16/2/2†
- Extent: length of uterine horn with adhesions (± Standard Error of the Mean) ([5]; 0.1% in vehicle): 2.925 (0.338)* cm
- Extent: length of uterine horn with adhesions (± Standard Error of the Mean) ([5]; 0.1% in vehicle, listed as Paclitaxel): 2.925±0.338 cm
- Adhesion-Free: number of uterine horns free of adhesions/total ([5]; 1% in vehicle): 0/18
- Convolution: number of uterine horns with no convolution/partial convolution/full convolution ([5]; 1% in vehicle): 18/0/0‡
- Extent: length of uterine horn with adhesions (± Standard Error of the Mean) ([5]; 1% in vehicle): 2.028±0.374 cm
- Extent: length of uterine horn with adhesions (± Standard Error of the Mean) ([5]; 1% in vehicle, listed as paclltaxel): 2.028 (0.374)** cm
- blood vessels in the immediate periphery of the tumor ([6]; two days): 14
- small capillaries in the tumor mass ([6]; two days): 3-4
- tumor vascularity ([6]; all 4 embryos): suppressing tumor vascularity
- toxicity to synovial fibroblasts ([7]; 10^−6 M and 10^−5 M): toxic
- inhibiting proliferation of the synoviocytes at concentrations as low as [7]: 10^−7 M
